This note sets out measurements from patent publication EP4431115A1, “COMPOUND PHARMACEUTICAL PREPARATION CONTAINING OIL COMPONENT COMPRISING POLYOXYETHYLENE STRUCTURE” (CHUGAI SEIYAKU KABUSHIKI KAISHA, priority 2022, dated 2023).

Converted amounts (≈) assume the structure as drawn. Bridge positions count the residues as written; N and C are the ends. Square brackets hold non-standard residues; d marks the D form. Peptide text beside a SMILES is read from it. * marks the point of attachment. hPhe(3,5-F2-4-CF3) = N[C@@H](CCc1cc(F)c(C(F)(F)F)c(F)c1)C(=O)O; hPhe(3-Cl-4-CF3) = N[C@@H](CCc1ccc(C(F)(F)F)c(Cl)c1)C(=O)O; NMeGly(cPent) = CN[C@H](C(=O)O)C1CCCC1; NMeCha = CN[C@@H](CC1CCCCC1)C(=O)O; Hyp = O=C(O)[C@@H]1C[C@@H](O)CN1; NMeF = CN[C@@H](Cc1ccccc1)C(=O)O; NMeD = CN[C@@H](CC(=O)O)C(=O)O; NMeL = CN[C@@H](CC(C)C)C(=O)O; NMeA = CN[C@@H](C)C(=O)O; Piperidide = C1CCN(*)CC1; Ac5c = NC1(C(=O)O)CCCC1; Aze = O=C(O)[C@@H]1CCN1; Sar = CNCC(=O)O; tBu = CC(C)(C)*

The term Solubility denotes the concentration that dissolves in the medium under given conditions.

This data set can be described thus: Evaluation of solubility of cyclic peptide compound in phosphate buffer (Example 3-3). It is filed as physicochemical. The note with it: 50 mM phosphate buffer solution pH 6.5, 37°C, 22 to 24 hours. How it is done:
Evaluation of the solubility of the cyclic peptide compound was performed. To lyophilized powder of the compound, a 50 mM phosphate buffer solution (PPB: Phosphate buffer, pH 6.5) was added, and after shaking (at 37°C, 1800 rpm, for 22 to 24 hours), the mixed solution was filtered through a filter, and the compound concentration of the filtrate was measured by LC/MS/MS. Solubility was calculated from the measured compound concentration. The solubilities of the compounds 3, 4, 6, 7, and 8 were 11 µg/mL, 1 µg/mL, 1 µg/mL, 15 µg/mL, and 5 µg/mL, respectively.
`CCO[C@@H]1C[C@H]2C(=O)NC3(CCCC3)C(=O)N(C)[C@@H](C3CCCC3)C(=O)N(C)[C@H](C(=O)N(C)C)CC(=O)N(C)[C@@H](CC(C)C)C(=O)N[C@@H]([C@@H](C)CC)C(=O)N(C)[C@@H](C)C(=O)N3CC[C@H]3C(=O)N(C)[C@@H](CC3CCCCC3)C(=O)N(C)CC(=O)N[C@@H](CCc3cc(F)c(C(F)(F)F)c(F)c3)C(=O)N2C1` [Compound 8] ([NMeL]I[NMeA][Aze][NMeCha][Sar][hPhe(3,5-F2-4-CF3)][Hyp](Et)[Ac5c][NMeGly(cPent)][NMeD]-NMe2; lactam N-11) registered a Solubility of 5 µg/mL (≈ 3.43 µM).

`CC(C)C[C@@H]1NC(=O)[C@H](Cc2ccccc2)N(C)C(=O)[C@H](COC(C)(C)C)NC(=O)[C@H](Cc2ccccc2)N(C)C(=O)[C@H](C)N(C)C(=O)[C@H](CC(C)C)N(C)C(=O)[C@@H](C)NC(=O)C[C@@H](C(=O)N2CCCCC2)NC(=O)[C@H](Cc2ccccc2)N(C)C(=O)[C@H]([C@@H](C)O)NC(=O)[C@H](CC(C)C)N(C)C1=O` [Compound 4] ([dA][NMeL][NMeA][NMeF]S(tBu)[NMeF]L[NMeL]T[NMeF]D-Piperidide; lactam N-11) yielded a Solubility of 1 µg/mL (≈ 0.697 µM).

For the molecule `CC[C@H](C)[C@@H]1NC(=O)[C@H](CC(C)C)N(C)C(=O)C[C@@H](C(=O)N2CCCCC2)N(C)C(=O)[C@H](C2CCCC2)N(C)C(=O)C2(CCCC2)NC(=O)[C@@H]2CCCN2C(=O)[C@H](CCc2ccc(C(F)(F)F)c(Cl)c2)NC(=O)CN(C)C(=O)[C@H](CC2CCCCC2)N(C)C(=O)[C@@H]2CCN2C(=O)[C@H](C)N(C)C1=O` [Compound 6] ([NMeL]I[NMeA][Aze][NMeCha][Sar][hPhe(3-Cl-4-CF3)]P[Ac5c][NMeGly(cPent)][NMeD]-Piperidide; lactam N-11), the Solubility is 1 µg/mL (≈ 0.688 µM).
